According to US7291601B1, “Arginine-rich anti-vascular endothelial growth factor peptides that inhibit growth and metastasis of human tumor cells by blocking angiogenesis” (Korea Greencross Corp., priority 1999, dated 2007):
Entries after “also recorded” stand apart in the source; their conditions may differ.

What was measured:
[1] = system: HT1080 (human fibrosarcoma); experiment: Egg CAM assay, angiogenesis induced by VEGF-secreting cancer cells; format: in vivo; settings: for effect on angiogenesis induced by VEGF secreted from human cancer cells: FIG. 12; for Angiogenic activity eggs/total eggs / Angiogenic activity(%): egg CAM, 10^5 HT1080 cells/egg with 0.1 μg peptide; for Angiogenic activity(%): (standard deviation)
Method: An experiment using egg CAM was carried out to confirm the inhibitory activity of the screened peptides against the angiogenesis induced by cancer cells, which secrete VEGF. Fertilized eggs were deprived of albumin and windows were formed on the eggs as in above. 10^5 cells of HT1080 (human fibrosarcoma) were mixed with 7.5 μg of Type I collagen (rat tail, Beckton Dickinson, USA) within a volume of 5 μl and dropped onto ¼ fraction pieces of Thermanox coverslips to give collagen sponges. After being covered with the collagen sponges, 10-day embryonic egg CAM was incubated at 37° C. for 3 days. Blood vessels induced by the cancer cells were observed and photographed as in above (see Table 6 and FIG. 12).

HUVEC = experiment: Toxicity of peptides to HUVEC in the absence of VEGF (thymidine incorporation); format: cell-based, human; settings: 100 μM peptide
Method: In a gelatin-coated 48-well plate (Nunc) HUVEC were cultured at a density of 10^4 cells/well at 37° C. for one day, followed by washing the cells three times with serum-free medium 199. After being added with culture media containing VEGF (10 ng/ml, R&D systems) and various concentrations of the screened peptides, the cells were cultured at 37° C. After 24 hours of culturing, the cells were added with [methyl-^3H] thymidine (0.5 μCi/well) and cultured for an additional one day. Before quantification of the radioactivity used for the DNA synthesis with the aid of a liquid scintillation counter, the cells were washed with PBS containing 0.1% albumin, treated with 0.4 N NaOH at room temperature for 20 min for cell lysis, and neutralized with 2 N HCl. In order to determine the toxicity of the peptides, HUVEC were examined as in above using excess peptide (100 μM) in the absence of VEGF.
With reference to FIG. 10b, the radioactivity of the thymidine inserted into the genome of HUVEC is measured in the absence of no peptides and in the presence of 100 μM of each of the three peptides.

[2] = system: human fibro-sarcoma cells; experiment: Viability of human fibro-sarcoma cells (tetrazolium dye); format: cell-based; settings: 3 days incubation, various concentrations
Method: The following experiment was carried out to determine whether peptides antagonistic to VEGF have direct influence on the growth of human fibro-sarcoma cells. After being cultured for one day in a 96-well plate (Nunc), the cancer cells were added with DMEM containing various concentrations of the screened peptides and incubated. To the cells remaining alive after 3 days of incubation, 20 μl of tetrazolium dye (Cell Titer 96 Non-Radioactive Proliferation assay kit, Promega) was added, followed by incubation at 37° C. for 4 hours. The formazan produced by the viable cells was dissolved in 0.2 ml of dimethyl sulfoxide (DMSO) quantified by the absorbance at 570 nm. The absorbance attributed to formazan is proportional to living cells.

[3] = system: HM7 (human colon carcinoma cell line); experiment: Subcutaneous HM7 tumor growth in athymic nude mice; format: in vivo; settings: after 15 days of subcutaneous injection
Method: From the next day, a solution of each peptide in PBS (0.5 μg/100 μl/day) was subcutaneously injected to the mice for 15 days. Sizes of the tumors thus formed were periodically measured while tumor volumes were calculated according to the following formula: Tumor Size=0.5×(Diameter)^2×length

[4] = system: HM7 (human colon carcinoma cell line); experiment: Liver metastasis of HM7 cells transplanted into the spleen of nude mice; format: in vivo; settings: control group PBS only
Description: In order to conduct an experiment concerning the metastasis of cancer cells to the liver, cancerous cells were transplanted into the spleen. In this regard, after being anesthetized with diethyl ether, 4-week-old male mice (athymic nude mice, BALB/c/nu/nu, Charles River, Japan) underwent flank incision. […] Four weeks after the injection, the liver was excised from each mouse and measured for weight and the size and number of metastatic nodules formed. Each test group was composed of 6-7 mice. In a student's t-test, a p value less than 0.05 was regarded as being statistically significant. In the test using tetrazolium dye (cell titer 96 Non-radioactive Proliferation Assay Kit, Promega), each peptide was evaluated to have no influence on the growth of the cancer cells (5×10^3 cells/well), so that the possibility that the toxicity of the peptide themselves might inhibit the growth and metastasis of cancer cells could be excluded.

rabbit corneal domes = experiment: Rabbit corneal dome angiogenesis induced by VEGF; format: in vivo; settings: VEGF 10 ng with 1 μg peptide, 16 days after operation; listed as Sequence 1
Method: To confirm the test results obtained from egg CAM, an experiment was performed using rabbit corneal domes for in vivo angiogenesis testing. New Zealand male rabbits weighing 3 kg (SLC, Japan) were subjected to intramuscular ketamine anesthesia (44 mg/kg), followed by dissecting the corneal domes to a length of 3 mm by use of an operating knife (Bard-Parker—#11). […] 16 days after the operation, angiogenesis was obviously observed and photographs were taken of blood vessels newly formed in the corneal dome (Nikon, FS-2, Japan).

Molecule: N=C(N)NCCC[C@H](NC(=O)[C@H](CCCNC(=N)N)NC(=O)[C@H](CCCNC(=N)N)NC(=O)[C@H](CCCNC(=N)N)NC(=O)[C@H](CCCNC(=N)N)NC(=O)[C@@H](N)CCCNC(=N)N)C(N)=O [compound 11, NH2-Arg-Arg-Arg-Arg-Arg-Arg-CONH2]
- effect on angiogenesis induced by VEGF secreted from human cancer cells [1]: inhibitory effect
- Angiogenic activity eggs/total eggs [1]: 10/24
- Angiogenic activity(%) [1]: 41.0(7.1) %
- direct influence on growth of HUVEC / cytotoxicity to endothelial cells (HUVEC): damage neither
- direct influence on growth / viability of human fibro-sarcoma cells ([2]; listed as SEQ ID NO: 3): no direct influence on human fibro sarcoma cells
- direct influence on growth / viability of human fibro-sarcoma cells ([2]; listed as Sequence 3): damage neither

Molecule: H-RRKRRR-NH2 [compound 8, NH2-Arg-Arg-Lys-Arg-Arg-Arg-CONH2]
- effect on tumor size / growth of human colon carcinoma cells in mice [3]: effectively inhibits the growth of human colon carcinoma cells in mice
- decrease of tumor size compared to the control (PBS) ([3]; 0.5 μg/100 μl/day): about 28%
- weight of the liver, % of the control group [4]: 33%
- number of metastatic nodules, % of the control group ([4]; liver): 16%
- effect on angiogenesis induced by VEGF secreted from human cancer cells [1]: inhibitory effect
- Angiogenic activity eggs/total eggs [1]: 8/22
- Angiogenic activity(%) [1]: 36.0(8.5) %
- direct influence on growth of HUVEC / cytotoxicity to endothelial cells (HUVEC): damage neither
- direct influence on growth / viability of human fibro-sarcoma cells ([2]; listed as SEQ ID NO: 1): no direct influence on human fibro sarcoma cells
- direct influence on growth / viability of human fibro-sarcoma cells ([2]; listed as Sequence 1): damage neither
- VEGF-induced angiogenesis in the rabbit corneal dome (rabbit corneal domes): completely inhibited; also recorded: anti-angiogenic effect

Molecule: H-RKKRKR-NH2 [compound 1, NH2-Arg-Lys-Lys-Arg-Lys-Arg-CONH2]
- effect on angiogenesis induced by VEGF secreted from human cancer cells [1]: inhibitory effect
- Angiogenic activity eggs/total eggs [1]: 10/23
- Angiogenic activity(%) [1]: 43.0(9.9) %
- direct influence on growth of HUVEC / cytotoxicity to endothelial cells (HUVEC): damage neither
- direct influence on growth / viability of human fibro-sarcoma cells ([2]; listed as SEQ ID NO: 2): no direct influence on human fibro sarcoma cells
- direct influence on growth / viability of human fibro-sarcoma cells ([2]; listed as Sequence 2): damage neither
